# Patent US7803930B2, “Antisense modulation of apolipoprotein B-expression” (Isis Pharmaceuticals, Inc., priority 2002, dated 2010)
# In the oligonucleotide strings, read from the 5' end, every base follows the letter of its sugar. An asterisk marks phosphorothioate; unmarked linkages are phosphodiester. Other units and linkages are bracketed, terminal groups are in braces. A string of capitals states the bases alone. e = 2'-O-(2-methoxyethyl) (MOE); [5mC] = 5-methylcytosine; d = 2'-deoxy (DNA)
# Tested on: human apolipoprotein B mRNA
# Experiment: Inhibition of human apolipoprotein B mRNA levels in HepG2 cells, quantitative real-time PCR
# Assay type: cell-based
# Details: for % INHIB / % INHIB 50 nm / % INHIB 150 nm / % Change in apolipoprotein B mRNA expression: HepG2 cells; for % INHIB (inhibition of human apolipoprotein B mRNA levels): HepG2 cells treated with 150 nM of compound, quantitative real-time PCR; for % Change in apolipoprotein B mRNA expression: 24 hour (Table 40)
# Experimental: The human hepatoblastoma cell line HepG2 was obtained from the American Type Culture Collection (Manassas, Va.). HepG2 cells were routinely cultured in Eagle's MEM supplemented with 10% fetal calf serum, non-essential amino acids, and 1 mM sodium pyruvate (Gibco/Life Technologies, Gaithersburg, Md.). Cells were routinely passaged by trypsinization and dilution when they reached 90% confluence. Cells were seeded into 96-well plates (Falcon-Primaria #3872) at a density of 7000 cells/well for use in RT-PCR analysis.
# When cells reached 80% confluency, they were treated with oligonucleotide. For cells grown in 96-well plates, wells were washed once with 200 μL OPTI-MEM™-1 reduced-serum medium (Gibco BRL) and then treated with 130 μL of OPTI-MEM™-1 containing 3.75 μg/mL LIPOFECTIN™ (Gibco BRL) and the desired concentration of oligonucleotide. After 4-7 hours of treatment, the medium was replaced with fresh medium. Cells were harvested 16-24 hours after oligonucleotide treatment.
# Quantitation of apolipoprotein B mRNA levels was determined by real-time quantitative PCR using the ABI PRISM™ 7700 Sequence Detection System (PE-Applied Biosystems, Foster City, Calif.) according to manufacturer's instructions. This is a closed-tube, non-gel-based, fluorescence detection system which allows high-throughput quantitation of polymerase chain reaction (PCR) products in real-time. As opposed to standard PCR, in which amplification products are quantitated after the PCR is completed, products in real-time quantitative PCR are quantitated as they accumulate. This is accomplished by including in the PCR reaction an oligonucleotide probe that anneals specifically between the forward and reverse PCR primers, and contains two fluorescent dyes. A reporter dye (e.g., JOE, FAM, or VIC, obtained from either Operon Technologies Inc., Alameda, Calif. or PE-Applied Biosystems, Foster City, Calif.) is attached to the 5′ end of the probe and a quencher dye (e.g., TAMRA, obtained from either Operon Technologies Inc., Alameda, Calif. or PE-Applied Biosystems, Foster City, Calif.) is attached to the 3′ end of the probe. When the probe and dyes are intact, reporter dye emission is quenched by the proximity of the 3′ quencher dye. During amplification, annealing of the probe to the target sequence creates a substrate that can be cleaved by the 5′-exonuclease activity of Taq polymerase. […] With each cycle, additional reporter dye molecules are cleaved from their respective probes, and the fluorescence intensity is monitored at regular intervals by laser optics built into the ABI PRISM™ 7700 Sequence Detection System. In each assay, a series of parallel reactions containing serial dilutions of mRNA from untreated control samples generates a standard curve that is used to quantitate the percent inhibition after antisense oligonucleotide treatment of test samples.
# PCR reagents were obtained from PE-Applied Biosystems, Foster City, Calif. RT-PCR reactions were carried out by adding 25 μL PCR cocktail (1× TAQMAN™ buffer A, 5.5 mM MgCl2, 300 μM each of DATP, dCTP and dGTP, 600 μM of dUTP, 100 nM each of forward primer, reverse primer, and probe, 20 Units RNAse inhibitor, 1.25 Units AMPLITAQ GOLD™, and 12.5 Units MuLV reverse transcriptase) to 96 well plates containing 25 μL total RNA solution. The RT reaction was carried out by incubation for 30 minutes at 48° C. Following a 10 minute incubation at 95° C. to activate the AMPLITAQ GOLD™, 40 cycles of a two-step PCR protocol were carried out: 95° C. for 15 seconds (denaturation) followed by 60° C. for 1.5 minutes (annealing/extension).
# Gene target quantities obtained by real time RT-PCR are normalized using either the expression level of GAPDH, a gene whose expression is constant, or by quantifying total RNA using RiboGreen™ (Molecular Probes, Inc. Eugene, Oreg.). GAPDH expression is quantified by real time RT-PCR, by being run simultaneously with the target, multiplexing, or separately. […]
# [1] = human apolipoprotein B mRNA, oligonucleotides targeting genomic sequence SEQ ID NO 334, averages from two experiments
# [2] = 50 nm oligonucleotide, variable deoxy gap position
# [3] = 150 nm oligonucleotide, variable deoxy gap position
substance,measurement,setting,value
301080 (e[5mC]*e[5mC]*e[5mC]*eA*eG*d[5mC]*dA*dA*dA*d[5mC]*dA*d[5mC]*dA*dG*dG*eT*eG*eA*eA*eG; antisense) [compound 301080],% INHIB,[1],25%
271024 (eG*e[5mC]*eT*e[5mC]*eA*d[5mC]*dT*dG*dT*dT*d[5mC]*dA*dG*d[5mC]*dA*eT*e[5mC]*eT*eG*eG; antisense) [compound 271024],% INHIB,"Table 12, 150 nM, averages from two experiments",27%
301207 (antisense eT*eT*e[5mC]*e[5mC]*e[5mC]*dA*dT*dT*d[5mC]*d[5mC]*d[5mC]*dT*dG*dA*dA*eA*eG*e[5mC]*eA*eG) [compound 301207],% INHIB,[1],13%
308604 (eA*eT*eG*eT*e[5mC]*dA*dT*dG*dG*dT*dA*dG*d[5mC]*d[5mC]*dT*e[5mC]*eA*eG*eT*e[5mC]; antisense) [compound 308604],% INHIB 50 nm,"Table 11 gene walk, 50 nM, averages from two experiments",73%
same,% INHIB 150 nm,"Table 11 gene walk, 150 nM, averages from two experiments",90%
301119 (antisense eA*e[5mC]*eA*eT*eA*d[5mC]*dA*dA*dA*dT*dG*dG*d[5mC]*dA*dA*eT*eA*eG*eG*e[5mC]) [compound 301119],% INHIB,[1],33%
281627 (antisense e[5mC]*e[5mC]*eA*eG*eA*dG*dA*dG*d[5mC]*dG*dA*dG*dT*dT*dT*e[5mC]*e[5mC]*e[5mC]*eA*eT) [compound 281627],% INHIB (inhibition of human apolipoprotein B mRNA levels),averages from two experiments,82%
271021 (antisense eG*eA*eG*eT*e[5mC]*dT*d[5mC]*dT*dG*dA*dG*dT*d[5mC]*dA*d[5mC]*e[5mC]*eT*e[5mC]*eA*e[5mC]) [compound 271021],% INHIB (inhibition of human apolipoprotein B mRNA levels),averages from two experiments,38%
308624 (eT*e[5mC]*eG*e[5mC]*eG*d[5mC]*d[5mC]*dT*dT*d[5mC]*dT*dG*d[5mC]*dT*dT*eG*eA*eG*eT*eT; antisense) [compound 308624],% INHIB 50 nm,"Table 13 gene walk, 50 nM, averages from two experiments",69%
same,% INHIB 150 nm,"Table 13 gene walk, 150 nM, averages from two experiments",89%
301095 (antisense e[5mC]*eA*eA*eG*eG*dA*dA*dG*d[5mC]*dA*d[5mC]*dA*d[5mC]*d[5mC]*dA*eT*eG*eT*e[5mC]*eA) [compound 301095],% INHIB,[1],38%
301056 (e[5mC]*eA*eG*eT*eT*dG*dA*dA*dA*dT*dG*d[5mC]*dA*dG*d[5mC]*eT*eA*eA*eT*eG; antisense) [compound 301056],% INHIB,[1],35%
"308644 (antisense GCCTCAGTCTGCTTCGCACC; 3-10-7 2'-MOE gapmer, phosphorothioate, chemistry not fully specified) [compound 308644]",% INHIB 50 nm,[2],71%
same,% INHIB 150 nm,[3],93%
281622 (antisense eA*eG*e[5mC]*eA*e[5mC]*d[5mC]*dA*dG*dG*dA*dG*dA*d[5mC]*dT*dA*e[5mC]*eA*e[5mC]*eT*eT) [compound 281622],% INHIB (inhibition of human apolipoprotein B mRNA levels),averages from two experiments,88%
301205 (antisense e[5mC]*eA*eA*eT*eT*d[5mC]*dA*dA*dT*dA*dA*dA*dA*dG*d[5mC]*eT*e[5mC]*e[5mC]*eA*eT) [compound 301205],% INHIB,[1],31%
270990 (antisense e[5mC]*e[5mC]*e[5mC]*eT*e[5mC]*dT*dT*dG*dA*dT*dG*dT*dT*d[5mC]*dA*eG*eG*eA*eT*eG) [compound 270990],% INHIB (inhibition of human apolipoprotein B mRNA levels),averages from two experiments,42%
"332769 (antisense GCCTCAGTCTGCTTCGCACC; all 2'-MOE, all phosphorothioate, methylation of C not given here) [compound 332769]",% Change in apolipoprotein B mRNA expression,50 nM,−11%
same,% Change in apolipoprotein B mRNA expression,150 nM,−14%
301078 (eT*eT*eT*eT*eA*dA*dA*dA*dT*dT*dA*dG*dA*d[5mC]*d[5mC]*e[5mC]*eA*eA*e[5mC]*e[5mC]; antisense) [compound 301078],% INHIB,[1],22%
"308643 (antisense AGGTTACCAGCCACATGCAG; 3-10-7 2'-MOE gapmer, phosphorothioate, chemistry not fully specified) [compound 308643]",% INHIB 50 nm,[2],56%
same,% INHIB 150 nm,[3],96%
301172 (antisense eT*eA*eA*eT*eG*dT*dG*dT*dT*dG*d[5mC]*dT*dG*dG*dT*eG*eA*eA*eG*eA) [compound 301172],% INHIB,[1],35%
